Measured values taken from patent US12637478B2, “Compound, preparation method thereof, and antibiotic composition comprising same” (priority 2020, dated 2026).
Values after ≈ are worked out from the molar mass of the structure shown.

What was measured:
C. difficile 9689 = assay: MIC by agar dilution against Clostridioides difficile, test strain 13; format: cell-based; conditions: test strain 13, C. difficile 9689, anaerobic, agar dilution, read-out: MIC
C. difficile 152 = assay: MIC by agar dilution against Clostridioides difficile, test strain 14; format: cell-based; conditions: test strain 14, C. difficile 152, anaerobic, agar dilution, read-out: MIC
C. difficile 159 = assay: MIC by agar dilution against Clostridioides difficile, test strain 15; format: cell-based; conditions: test strain 15, C. difficile 159, anaerobic, agar dilution, read-out: MIC
C. difficile 161 = assay: MIC by agar dilution against Clostridioides difficile, test strain 16; format: cell-based; conditions: test strain 16, C. difficile 161, anaerobic, agar dilution, read-out: MIC
C. difficile 173 = assay: MIC by agar dilution against Clostridioides difficile, test strain 17; format: cell-based; conditions: test strain 17, C. difficile 173, anaerobic, agar dilution, read-out: MIC
C. difficile 174 = assay: MIC by agar dilution against Clostridioides difficile, test strain 18; format: cell-based; conditions: test strain 18, C. difficile 174, anaerobic, agar dilution, read-out: MIC
C. difficile 181 = assay: MIC by agar dilution against Clostridioides difficile, test strain 19; format: cell-based; conditions: test strain 19, C. difficile 181, anaerobic, agar dilution, read-out: MIC
S. aureus^MS [1] = assay: MIC by broth microdilution (aerobic pathogens), test strain 1; format: cell-based; conditions: Staphylococcus aureus; test strain 1, S. aureus^MS; read-out: MIC
Experimental: (§1) The antibacterial activity of the compounds of Examples 1 to 48 of the present invention against aerobic pathogens were evaluated by measuring the minimum concentration of the antibiotic capable of inhibiting bacterial growth by 90% compared to the growth of the non-drug treated control group. MIC was measured by the broth microdilution method based on CLSI standards [Reference: Clinical and Laboratory Standards Institute Document. (2000) Methods for Dilution Antimicrobial Susceptibility Test for Bacteria that Grow Aerobically-Fifth Edition: M7-A5. CLSI, Villanova, PA].
(§2) All 13 strains such as methicillin susceptible Staphylococcus aureus (MSSA), methicillin resistant Staphylococcus aureus (MRSA), Vancomycin resistant Staphylococcus aureus (VRSA), Staphylococcus epidermidis, methicillin resistant Staphylococcus epidermidis, Enterococcus faecalis, Vancomycin resistant Enterococcus faecalis, Enterococcus faecium, Vancomycin resistant Enterococcus faecium were used.

S. aureus^MS [2] = assay: MIC by broth microdilution (aerobic pathogens), test strain 2; format: cell-based; conditions: Staphylococcus aureus; test strain 2, S. aureus^MS; read-out: MIC
Experimental: as §1, §2

S. aureus^MR = assay: MIC by broth microdilution (aerobic pathogens), test strain 3; format: cell-based, Methicillin resistant Staphylococcus aureus; conditions: Staphylococcus aureus; test strain 3, S. aureus^MR (methicillin resistant); read-out: MIC
Experimental: as §1, §2

S. aureus^VR = assay: MIC by broth microdilution (aerobic pathogens), test strain 4; format: cell-based, Vancomycin resistant Staphylococcus aureus; conditions: Staphylococcus aureus; test strain 4, S. aureus^VR (vancomycin resistant); read-out: MIC
Experimental: as §1, §2

S. epidermis = assay: MIC by broth microdilution (aerobic pathogens), test strain 5; format: cell-based; conditions: Staphylococcus epidermidis; test strain 5, S. epidermis; read-out: MIC
Experimental: as §1, §2

S. epidermis^MR = assay: MIC by broth microdilution (aerobic pathogens), test strain 6; format: cell-based, Methicillin resistant Staphylococcus epidermidis; conditions: Staphylococcus epidermidis; test strain 6, S. epidermis^MR (methicillin resistant); read-out: MIC
Experimental: as §1, §2

E. faecalis = assay: MIC by broth microdilution (aerobic pathogens), test strain 7; format: cell-based; conditions: Enterococcus faecalis; test strain 7, E. faecalis; read-out: MIC
Experimental: as §1, §2

E. faecalis^VanA = assay: MIC by broth microdilution (aerobic pathogens), test strain 8; format: cell-based, Vancomycin resistant Enterococcus faecalis; conditions: Enterococcus faecalis; test strain 8, E. faecalis^VanA (vancomycin resistant); read-out: MIC
Experimental: as §1, §2

E. faecalis^LinR = assay: MIC by broth microdilution (aerobic pathogens), test strain 9; format: cell-based, Linezolid resistant Enterococcus faecalis; conditions: Enterococcus faecalis; test strain 9, E. faecalis^LinR (linezolid resistant); read-out: MIC
Experimental: as §1, §2

E. faecium = assay: MIC by broth microdilution (aerobic pathogens), test strain 10; format: cell-based; conditions: Enterococcus faecium; test strain 10, E. faecium; read-out: MIC
Experimental: as §1, §2

E. faecium^VRE = assay: MIC by broth microdilution (aerobic pathogens), test strain 11; format: cell-based, Vancomycin resistant Enterococcus faecium; conditions: Enterococcus faecium; test strain 11, E. faecium^VRE (vancomycin resistant); read-out: MIC
Experimental: as §1, §2

E. faecium^LinR = assay: MIC by broth microdilution (aerobic pathogens), test strain 12; format: cell-based, Linezolid resistant Enterococcus faecium; conditions: Enterococcus faecium; test strain 12, E. faecium^LinR (linezolid resistant); read-out: MIC
Experimental: as §1, §2

MIC (C. difficile 9689) [µg/mL] | MIC (C. difficile 152) [µg/mL] | MIC (C. difficile 159) [µg/mL] | MIC (C. difficile 161) [µg/mL] | MIC (C. difficile 173) [µg/mL] | MIC (C. difficile 174) [µg/mL] | MIC (C. difficile 181) [µg/mL] | MIC (S. aureus^MS [1]) [µg/mL] | MIC (S. aureus^MS [2]) [µg/mL] | MIC (S. aureus^MR) [µg/mL] | MIC (S. aureus^VR) [µg/mL] | MIC (S. epidermis) [µg/mL] | MIC (S. epidermis^MR) [µg/mL] | MIC (E. faecalis) [µg/mL] | MIC (E. faecalis^VanA) [µg/mL] | MIC (E. faecalis^LinR) [µg/mL] | MIC (E. faecium) [µg/mL] | MIC (E. faecium^VRE) [µg/mL] | MIC (E. faecium^LinR) [µg/mL] | SMILES
0.5 (≈ 0.408 µM) | 0.5 (≈ 0.408 µM) | 0.5 (≈ 0.408 µM) | 0.5 (≈ 0.408 µM) | 1 (≈ 0.816 µM) | 0.5 (≈ 0.408 µM) | 0.5 (≈ 0.408 µM) |  |  |  |  |  |  |  |  |  |  |  |  | C/C=C(\NC(=O)c1csc(-c2csc(-c3ccc4c(n3)-c3csc(n3)[C@H]([C@@H](C)O)NC(=O)c3csc(n3)[C@H](C(C)C)NC(=O)c3csc(n3)/C(=C/C)NC(=O)[C@H]([C@@H](C)O)NC(=O)c3csc-4n3)n2)n1)C(=O)NCCn1ccnc1[N+](=O)[O-] [Compound 43]
0.5 (≈ 0.403 µM) | 0.5 (≈ 0.403 µM) | 0.5 (≈ 0.403 µM) | 0.5 (≈ 0.403 µM) | 1 (≈ 0.807 µM) | 0.5 (≈ 0.403 µM) | 1 (≈ 0.807 µM) |  |  |  |  |  |  |  |  |  |  |  |  | C/C=C1\NC(=O)[C@H]([C@@H](C)O)NC(=O)c2csc(n2)-c2ccc(-c3nc(-c4nc(C(=O)NC5(C(=O)NCCn6cc([N+](=O)[O-])nc6C)CC5)cs4)cs3)nc2-c2csc(n2)[C@H]([C@@H](C)O)NC(=O)c2csc(n2)[C@H](C(C)C)NC(=O)c2csc1n2 [Compound 45]
 |  |  |  |  |  |  | 0.5 (≈ 0.412 µM) | 0.5 (≈ 0.412 µM) | 1 (≈ 0.825 µM) | 0.5 (≈ 0.412 µM) | 0.25 (≈ 0.206 µM) | 0.25 (≈ 0.206 µM) | 0.5 (≈ 0.412 µM) | 0.5 (≈ 0.412 µM) | 0.25 (≈ 0.206 µM) | 0.25 (≈ 0.206 µM) | 0.5 (≈ 0.412 µM) | 0.5 (≈ 0.412 µM) | C/C=C(\NC(=O)c1csc(-c2csc(-c3ccc4c(n3)-c3csc(n3)[C@H]([C@@H](C)O)NC(=O)c3csc(n3)[C@H](C(C)C)NC(=O)c3csc(n3)/C(=C/C)NC(=O)[C@H]([C@@H](C)O)NC(=O)c3csc-4n3)n2)n1)C(=O)NCCN1CCN(C)CC1 [Compound 46]
 |  |  |  |  |  |  | 0.5 (≈ 0.403 µM) | 0.5 (≈ 0.403 µM) | 1 (≈ 0.806 µM) | 1 (≈ 0.806 µM) | 0.5 (≈ 0.403 µM) | 0.5 (≈ 0.403 µM) | 0.5 (≈ 0.403 µM) | 0.5 (≈ 0.403 µM) | 1 (≈ 0.806 µM) | 0.5 (≈ 0.403 µM) | 1 (≈ 0.806 µM) | 1 (≈ 0.806 µM) | C/C=C(\NC(=O)c1csc(-c2csc(-c3ccc4c(n3)-c3csc(n3)[C@H]([C@@H](C)O)NC(=O)c3csc(n3)[C@H](C(C)C)NC(=O)c3csc(n3)/C(=C/C)NC(=O)[C@H]([C@@H](C)O)NC(=O)c3csc-4n3)n2)n1)C(=O)NCCN1CCN(C(C)C)CC1 [Compound 47]
 |  |  |  |  |  |  | 0.5 (≈ 0.412 µM) | 0.5 (≈ 0.412 µM) | 1 (≈ 0.824 µM) | 1 (≈ 0.824 µM) | 0.5 (≈ 0.412 µM) | 0.5 (≈ 0.412 µM) | 0.5 (≈ 0.412 µM) | 0.5 (≈ 0.412 µM) | 1 (≈ 0.824 µM) | 0.5 (≈ 0.412 µM) | 1 (≈ 0.824 µM) | 1 (≈ 0.824 µM) | C/C=C(\NC(=O)c1csc(-c2csc(-c3ccc4c(n3)-c3csc(n3)[C@H]([C@@H](C)O)NC(=O)c3csc(n3)[C@H](C(C)C)NC(=O)c3csc(n3)/C(=C/C)NC(=O)[C@H]([C@@H](C)O)NC(=O)c3csc-4n3)n2)n1)C(=O)NCCCN1CCOCC1 [Compound 48]
 |  |  |  |  |  |  | 2 (≈ 5.93 µM) | 1 (≈ 2.96 µM) | 4 (≈ 11.9 µM) | 8 (≈ 23.7 µM) | 1 (≈ 2.96 µM) | 1 (≈ 2.96 µM) | 2 (≈ 5.93 µM) | 2 (≈ 5.93 µM) | 64 (≈ 190 µM) | 4 (≈ 11.9 µM) | 2 (≈ 5.93 µM) | 32 (≈ 94.9 µM) | CC(=O)NC[C@H]1CN(c2ccc(N3CCOCC3)c(F)c2)C(=O)O1 [Lin, Linezolid, reference compound]
